# Data published in patent US20100009970A1, “COMPOSITIONS AND METHODS FOR TREATMENT OF VIRAL DISEASES” (Combinatorx (Singapore) Pte. Ltd., priority 2008, published 2010).
# Where a name gives a salt, the structure may show the parent alone.
# Test system: Huh7 cells expressing a subgenomic RNA replicon of Con1 (genotype 1b) sequence origin
# Assay: microbe, parasite or virus in culture
# Settings: Hepatitis C virus, GETYPE1B, Huh-7, read-out: IC25 (values noted with an asterisk)
row,Structure (SMILES),IC25 [µM]
1,"O=C1CC(=O)c2c(Cl)c(Cl)c(Cl)c(Cl)c21 [UCH-L3 inhibitor, 4,5,6,7-Tetrachloroindan-1,3-dione, reference compound]",19.7

# Same assay, conditions: Hepatitis C virus, Huh-7
row,Structure (SMILES),IC50 [µM]
1,"N[C@@H](Cc1ccc(N(CCCl)CCCl)cc1)C(=O)O [Melphalan, reference compound]",5.94
2,"CC[C@@H](C(=O)O)[C@@H]1O[C@@H]([C@@H](C)[C@H](O)[C@H](C)C(=O)[C@H](CC)[C@H]2O[C@]3(C=C[C@@H](O)[C@]4(CC[C@@](C)([C@H]5CC[C@](O)(CC)[C@H](C)O5)O4)O3)[C@H](C)C[C@@H]2C)[C@@H](C)C[C@@H]1C [Narasin, reference compound]",0.176
3,"CCCOc1ccc2nc(NC(=O)OC)[nH]c2c1 [Oxibendazole, reference compound]",0.3
4,"O=C(O)Cc1cc(I)c(Oc2ccc(O)c(I)c2)c(I)c1 [Tiratricol, reference compound]",15.6
5,"CCN(CC)C(=S)SSC(=S)N(CC)CC [Disulfiram, reference compound]",5.5
6,"C[C@]12CCC(=O)C=C1CC[C@@H]1[C@@H]2CC[C@@]2(C)[C@H]1CC[C@]2(C)O [Methyltestosterone, methyltestosterone, reference compound]",19.1
7,"C[C@@H]1CC[C@H]2[C@@H](C)C(=O)O[C@@H]3O[C@]4(C)CC[C@@H]1[C@]32OO4 [Artemisinin, artemisinin, reference compound]",4.45
8,"CN(C)CCCN1c2ccccc2CCc2ccccc21 [Imipramine (e.g., hydrochloride), Imipramine, reference compound]",16.9
9,"CC(C)N1CCN(c2ccc(OCC3COC(Cn4cncn4)(c4ccc(Cl)cc4Cl)O3)cc2)CC1 (stereo not shown) [Terconazole, reference compound]",2.55
10,"O=c1[nH]cc(F)c(=O)[nH]1 [Fluorouracil, reference compound]",18.7
11,"C[C@]12Cc3c[nH]nc3C[C@@H]1CC[C@@H]1[C@@H]2CC[C@@]2(C)[C@H]1CC[C@]2(C)O [Stanozolol, stanozolol, reference compound]",15.2
12,"CC(C)(C)NC(=O)NC(C(=O)N1C[C@H]2[C@@H]([C@H]1C(=O)NC(CC1CCC1)C(=O)C(N)=O)C2(C)C)C(C)(C)C (stereo partly shown) [Boceprevir (SCH 503034), Boceprevir, reference compound]",0.259
13,"Oc1cccc2c(O)nccc12 [1,5-Isoquinolinediol, reference compound]",25.9
14,"CN1C[C@H](C(=O)N[C@]2(C)O[C@@]3(O)[C@@H]4CCCN4C(=O)[C@H](Cc4ccccc4)N3C2=O)C[C@@H]2c3cccc4[nH]cc(c34)C[C@H]21 [Dihydroergotamine (e.g., mesylate), dihydroergotamine, reference compound]",22.8
15,"CCOc1cc(N)c(Cl)cc1C(=O)NCC1CN(Cc2ccc(F)cc2)CCO1 (stereo not shown) [Mosapride (e.g., citrate), mosapride, reference compound]",10.9
16,"Nc1nc(Cl)nc2c1ncn2[C@H]1C[C@H](O)[C@@H](CO)O1 [Cladribine, 2-chloro-2′-deoxyadenosine, reference compound]",0.112
17,"CC(=O)Oc1ccccc1C(=O)Nc1ncc([N+](=O)[O-])s1 [Nitazoxanide, nitazoxanide, reference compound]",14
18,"CC(C(O)c1ccc(O)cc1)N1CCC(Cc2ccccc2)CC1 (stereo not shown) [Ifenprodil (e.g., tartrate), Ifenprodil, reference compound]",4.68
19,"CCC(C)(C)C(=O)O[C@H]1C[C@@H](C)C=C2C=C[C@H](C)[C@H](CC[C@@H](O)C[C@@H](O)CC(=O)O)[C@H]21 [Simvastatin hydroxy acid, ammonium salt, simvastatin hydroxy acid, ammonium salt, reference compound]",13.4

row,Structure (SMILES),IC50 [µM]
1,"O=c1cc(N2CCOCC2)oc2c(-c3ccccc3)cccc12 [LY 294002, reference compound]",3.4
2,"CCCCC1C(=O)NN(c2ccccc2)C1=O (stereo not shown) [Mofebutazone, mofebutazone, reference compound]",14.6
3,"Nc1ccc(/N=N/c2ccccc2)c(N)n1 [Phenazopyridine (e.g., hydrochloride), Phenazopyridine, reference compound]",7.85
4,Nc1nc[nH]n1 [Amitrole],14.6
5,"C[C@H]1CC(=O)C[C@@H]2CC[C@H]3[C@@H]4CC[C@H](O)[C@@]4(C)CC[C@@H]3[C@]21C [Mesterolone, mesterolone, reference compound]",5.18
6,"CC1=C(/C=C/C(C)=C/C=C/C(C)=C/C(=O)Nc2ccc(O)cc2)C(C)(C)CCC1 [Fenretinide, reference compound]",2.26
7,"COc1ccc(O)cc1 [Mequinol, reference compound]",18.7
8,"CCOC(=O)c1ccc(N)cc1 [Benzocaine, reference compound]",13.9
9,"COc1ccc2c(c1OC)C(=O)O[C@@H]2[C@H]1c2c(cc3c(c2OC)OCO3)CCN1C [Noscapine, reference compound]",15.8
10,"COC(=O)[C@H]1[C@H]2C[C@@H]3c4[nH]c5cc(OC)ccc5c4CCN3C[C@H]2C[C@@H](OC(=O)/C=C/c2cc(OC)c(OC)c(OC)c2)[C@@H]1OC [Rescinnamine, reference compound]",7.88
11,"O=C(CCCN1CCC(O)(c2cccc(C(F)(F)F)c2)CC1)c1ccc(F)cc1 [Trifluperidol, reference compound]",7.8
12,"CC[C@H](C)C(=O)O[C@H]1CCC=C2C=C[C@H](C)[C@H](CC[C@@H]3C[C@@H](O)CC(=O)O3)[C@H]21 [Mevastatin, reference compound]",3.45
13,"CCC(C)(C)C(=O)O[C@H]1C[C@@H](C)C=C2C=C[C@H](C)[C@H](CC[C@@H]3C[C@@H](O)CC(=O)O3)[C@H]21 [Simvastatin, simvastatin, reference compound]",21.3
14,"C[C@@]1(O)[C@H](O)[C@@H](CO)O[C@H]1n1ccc(N)nc1=O [2′-C-Methylcytidine, 2′-C-methylcytidine, reference compound]",1.63
15,"CO[C@H]1/C=C/O[C@@]2(C)Oc3c(C)c(O)c4c(c3C2=O)C2=NC3(CCN(CC(C)C)CC3)NC2=C(NC(=O)/C(C)=C\C=C\[C@H](C)[C@H](O)[C@@H](C)[C@@H](O)[C@@H](C)[C@H](OC(C)=O)[C@@H]1C)C4=O [Rifabutin, reference compound]",17.2
16,"COc1cc(C(=O)NS(=O)(=O)c2ccccc2C)ccc1Cc1cn(C)c2ccc(NC(=O)OC3CCCC3)cc12 [Zafirlukast, reference compound]",18.5
17,"CCCCOc1ccc(CC(=O)NO)cc1 [Bufexamac, bufexamac, reference compound]",8.29
18,"N[C@H](Cc1cc(I)c(Oc2cc(I)c(O)c(I)c2)c(I)c1)C(=O)O [Dextrothyroxine (e.g., sodium), dextrothyroxine, reference compound]",5
19,"CCN(CC)CCOCCOC(=O)C(CC)(CC)c1ccccc1 [Oxeladin, reference compound]",8.72

row,Structure (SMILES),IC50 [µM]
1,"CO[C@H]1/C=C/O[C@@]2(C)Oc3c(C)c(O)c4c(O)c(c5c(nc6cc(C)ccn65)c4c3C2=O)NC(=O)/C(C)=C\C=C\[C@H](C)[C@H](O)[C@@H](C)[C@@H](O)[C@@H](C)[C@H](OC(C)=O)[C@@H]1C [Rifaximin, reference compound]",19.4
2,"CC(CN(C)C)CN1c2ccccc2CCc2ccccc21 (stereo not shown) [Trimipramine (e.g., maleate), Trimipramine, reference compound]",15.6
3,"CC1(C)C(/C=C/C=C/C=C/C=C2\N(CCCCS(=O)(=O)O)c3ccc4ccccc4c3C2(C)C)=[N+](CCCCS(=O)(=O)[O-])c2ccc3ccccc3c21 [Indocyanine Green, reference compound]",8.13
4,"C/C=C(/C(=C/C)c1ccc(O)cc1)c1ccc(O)cc1 [Dienestrol, reference compound]",16.5
5,"CCOc1cc(CC(=O)N[C@@H](CC(C)C)c2ccccc2N2CCCCC2)ccc1C(=O)O [Repaglinide, reference compound]",12.2
6,"O=c1oc2cc(O)ccc2s1 [Tioxolone, reference compound]",16.2
7,"C[C@H]1[C@@H](O)O[C@@H]2O[C@@]3(C)CC[C@H]4[C@H](C)CC[C@@H]1[C@@]24OO3 [Dihydroartemisinin, dihydroartemisinin, reference compound]",3.87
8,"COc1cc(C=O)ccc1O [Vanillin (e.g., acetate), Vanillin]",3.73
9,"OC(CCCN1CCCCC1)(c1ccccc1)c1ccccc1 [Diphenidol (e.g., hydrochloride), Diphenidol, reference compound]",25.4
10,"O=C1[C@H]2CCCC[C@H]2C(=O)N1CCCCN1CCN(c2nsc3ccccc23)CC1 [Perospirone, reference compound]",3.6
11,"O=CN/C=C/c1cc(O)ccc1O [Erbstatin, reference compound]",7.63
12,"CCN(CCCCOC(=O)c1ccc(OC)c(OC)c1)C(C)Cc1ccc(OC)cc1 (stereo not shown) [Mebeverine (e.g., hydrochloride), Mebeverine, reference compound]",14.9
13,"O=c1[nH]c(=O)n([C@H]2C[C@H](O)[C@@H](CO)O2)cc1F [Floxuridine, floxuridine, reference compound]",0.0045
14,"CC(C)C[C@H]1C(=O)N2CCC[C@H]2[C@]2(O)O[C@](NC(=O)[C@@H]3C=C4c5cccc6[nH]c(Br)c(c56)C[C@H]4N(C)C3)(C(C)C)C(=O)N12 [Bromocriptine (e.g., mesylate), bromocriptine, reference compound]",3.38
15,"CN(C)C(=S)SSC(=S)N(C)C [Thiram, thiram]",3.64
16,"COC(=O)Nc1nc2ccc([S+]([O-])c3ccccc3)cc2[nH]1 (stereo not shown) [Oxfendazole, reference compound]",7.3
17,"Nc1cccc(OCCCCCOc2cccc(N)c2)c1 [3,3′-(Pentamethylenedioxy)dianiline, reference compound]",1.63
18,"CCCCOc1cc(C(=O)NCCN(CC)CC)c2ccccc2n1 [Dibucaine (e.g., hydrochloride), Dibucaine, reference compound]",6.68

# Same assay, conditions: Hepatitis C virus, Huh-7, read-out: IC50 in our hands
row,Structure (SMILES),IC50 [µM]
1,"COc1cc(C(=O)NS(=O)(=O)c2ccccc2C)ccc1Cc1cn(C)c2ccc(NC(=O)OC3CCCC3)cc12 [Zafirlukast, reference compound]",18.5
